Results published in patent US11813236B2, “Substances for treatment of fatty liver-related conditions” (SCANDIBIO THERAPEUTICS AB, priority 2016, dated 2023).
Blank lines part the entries; values can stand above or below the compound they belong to.

Legend:
[1] = tested on: humans; conditions: cited from earlier work
[2] = tested on: subjects with high HS; experiment: Human study: supplementation of serine; format: in vivo
Protocol: 86 subjects with varying degrees of […] were recruited for studying the response of liver to the HS. Also, liver tissue samples from 12 morbidly obese subjects that underwent bariatric surgery were collected. The mRNA expression of the identified target genes was measured in liver of obese and healthy subjects. In order to show the effect of the serine on the liver, another six subjects were recruited and the subjects' characteristics before and after serine supplementation are presented in Table 3. Subjects included in the studies met all the criteria for NAFLD including exclusion of other chronic liver diseases such as viral hepatitis, risky alcohol consumption, metabolic disorders (e.g., hemochromatosis).
Magnetic resonance experiments were performed using three 1.5 T clinical imagers (1× Sonata and 2× Avanto, Siemens, Erlangen, Germany). Liver fat content was determined using proton magnetic resonance spectroscopy and subcutaneous abdominal and visceral fat was measured by magnetic resonance imaging (Adiels et al, 2006; Lundbom et al, 2011).
(§1) The effect of short-term dietary supplementation with serine on HS and fasting levels of Plasma markers of liver functions was assessed in six subjects with high. HS. Each patient received one oral dose of ˜20 g of L-serine (200 mg/kg) per day for 14 days.
as §1, with “To identify the unique contribution of serine supplementation in decreasing HS, the” for “The”, “plasma” for “Plasma”, “high” for “high.”

[3] = 200 mg/kg/day oral 14 days, six subjects

Structure (SMILES): CC(=O)N[C@@H](CS)C(=O)O [NAC, N-acetyl-L-cysteine, reference compound]
Daily dosage shown to be safe in humans ([1]; NAC): 4-6 grams

Plasma level of serine after supplementation ([2]; 200 mg/kg/day oral 14 days, six subjects, change in words): significantly increased
Structure (SMILES): N[C@@H](CO)C(=O)O [serine, L-serine]
Doses studied in humans and shown to be safe ([1]; serine, around 25-30 g/day): up to 400 mg/kg/day | Plasma level of ALP after supplementation (change in words) [2, 3]: significantly decreased | Plasma level of ALT after supplementation (change in words) [2, 3]: significantly decreased | Plasma level of AST after supplementation (change in words) [2, 3]: significantly decreased | Plasma ALT, response per subject ([2]; 200 mg/kg/day oral 14 days, six subjects, FIG. 5C panel H): consistently decreased in all six subjects | Plasma AST, response per subject ([2]; 200 mg/kg/day oral 14 days, six subjects, FIG. 5C panel I): consistently decreased in all six subjects | Plasma ALP, response per subject ([2]; 200 mg/kg/day oral 14 days, six subjects, FIG. 5C panel J): decreased in five of the participating subjects | Plasma TGs, response per subject ([2]; 200 mg/kg/day oral 14 days, six subjects, FIG. 5C panel K, no change in the remaining one subject): decreased in five of the studied subjects | Markers of liver function after supplementation ([2]; NAFLD patients, proof-of-concept human study): significantly improved | HDL cholesterol ([2]; after serine, n = 6, 200 mg/kg/day oral 14 days, mean ± SD, baseline 1.00 ± 0.21, P 0.30): 1.02 ± 0.18 mmol/L | HOMA-IR ([2]; after serine, n = 6, 200 mg/kg/day oral 14 days, mean ± SD, baseline 2.15 ± 1.85, P 0.18): 1.54 ± 1.49 | LDL cholesterol ([2]; after serine, n = 6, 200 mg/kg/day oral 14 days, mean ± SD, baseline 3.68 ± 0.80, P 0.50): 3.85 ± 0.94 mmol/L | Total cholesterol ([2]; after serine, n = 6, 200 mg/kg/day oral 14 days, mean ± SD, baseline 6.23 ± 1.49, P 0.18): 5.85 ± 1.15 mmol/L | Fasting plasma glucose ([2]; after serine, n = 6, 200 mg/kg/day oral 14 days, mean ± SD, baseline 6.57 ± 1.41, P 0.25): 6.33 ± 1.41 mmol/L | Plasma triglycerides (TG) ([2]; after serine, n = 6, 200 mg/kg/day oral 14 days, mean ± SD, baseline 6.90 ± 6.65, P 0.13): 3.63 ± 1.81 mmol/L | Bilirubin ([2]; after serine, n = 6, 200 mg/kg/day oral 14 days, mean ± SD, baseline 7.33 ± 4.11, P 0.13): 6.48 ± 3.94 µmol/L | Fasting plasma insulin (FPI) ([2]; after serine, n = 6, 200 mg/kg/day oral 14 days, mean ± SD, baseline 46.3 ± 33.8, P 0.23): 34.7 ± 25.2 pmol/L | γ-Glutamyl transferase (μGT) (U/L) ([2]; after serine, n = 6, 200 mg/kg/day oral 14 days, mean ± SD, baseline 63.8 ± 12.9, P 0.30): 62.3 ± 16.3 U/L | Liver fat (%) ([2]; after serine, n = 6, L-serine 200 mg/kg oral once per day for 14 days, mean ± SD, baseline 26.8 ± 6.0, P<0.05): 20.4 ± 7.0% | HS (hepatic steatosis) after serine supplementation (change in words) ([2]; magnetic resonance spectroscopy before and after, 200 mg/kg/day oral 14 days): significantly decreased | HS, response per patient ([2]; magnetic resonance spectroscopy, 200 mg/kg/day oral 14 days, six patients): decreased in all six patients | Aspartate aminotransferase (AST) (U/L) ([2]; plasma, after serine, n = 6, 200 mg/kg/day oral 14 days, mean ± SD, baseline 34.5 ± 8.10, P<0.05): 27.4 ± 8.4 U/L | Alanine aminotransferase (ALT) (U/L) ([2]; plasma, after serine, n = 6, 200 mg/kg/day oral 14 days, mean ± SD, baseline 50.8 ± 15.2, P<0.05): 37.6 ± 5.3 U/L | Alkaline phosphatase (ALP) (U/L) ([2]; plasma, after serine, n = 6, 200 mg/kg/day oral 14 days, mean ± SD, baseline 76.3 ± 17.2, P<0.05): 71.3 ± 17.9 U/L | Relative decrease in HS ([2]; range over the six NAFLD patients, 200 mg/kg/day oral 14 days): 1.0-23% | Tolerability of the supplementation ([2]; ~20 g L-serine (200 mg/kg) oral once per day for 14 days, six subjects): well tolerated by all the subjects
